Experimental data: patent EP0214101A2, “Use of iron(III) chelators of the type desferrioxamine-B and desferriferrithiocine in the treatment of malaria” (CIBA-GEIGY AG, priority 1985, dated 1987)
Like-named read-outs stand apart in the source and are kept apart here.

How the values were obtained:
[1] = test system: Plasmodium falciparum T96 Chloroquinresistente Zellinie B; assay: microbe, parasite or virus in culture; assay type: cell-based; details: for IC50: Plasmodium falciparum, Erythrocyte, over 2 cycles
Source text: (§1) • a) Durch konventionelles Züchten des Stammes Plasmodium falciparum T96 in einer 2 % (V/V) Suspension von humanen Erythrozyten wird der Grundorganismus-Zellinie A fortgepflanzt, welche eine normale Empfindlichkeit gegenüber Chloroquin aufweist. • b) Zellinie A des obigen Stammes wird unter analogen Standardbedingungen wie unter a) gezüchtet, jedoch mit Zusatz von immer ansteigenden Konzentrationen von Chloroquin, bis eine Chloroquinresistente Zellinie B resultiert, welche weiterhin in Kulturmedien mit einer 500 nM-Konzentration von Chloroquin andauernd normales Wachstum (dieselbe Wachstumsraten wie Zellinie A) aufweist.
(§2) • I. Die Züchtung von Testorganismen erfolgt unter den für Züchtung von Plasmodien üblichen Bedingungen auf einer 2 % Suspension von humanen Erythrozyten, supplementiert mit 50 mg/1 Hypoxanthin und gegebenenfalls unter Zugabe der getesteten Hemmsubstanz in gewünschter Konzentration. Die initiale Parasitämie (= der prozentuelle Anteil der zu Beginn von Plasmodien infizierten Erythrozyten) beträgt 1-2 %. Das Resultat (Hemmwirkung) wird als IC50 ausgewertet, d.h. jene Konzentration des Wirkstoffes, die eine Senkung der finalen Parasitämie um 50 %, d.h. eine 50%ige Hemmung des Wachstums, verursacht. • II. In einer alternativen Versuchsanordnung wird beim Einhalten aller übrigen Bedingungen ohne Zugabe von Hypoxanthin und mit einer initialen Parasitämie von 0,5 % gearbeitet.

[2] = very high doses; cited from earlier work
[3] = test system: P. vinckei; details: cited from earlier work
[4] = test system: Plasmodium falciparum in Kultur an menschlichen Erythrozyten; details: in vitro culture; cited from earlier work
[5] = test system: Plasmodium falciparum T96 Zellinie A; assay: Growth inhibition of Plasmodium falciparum T96 cell line A (normal chloroquine sensitivity) in culture on human erythrocytes; assay type: cell-based; details: Erythrocyte, over 2 cycles
Source text: as §1
as §2, with “In einer alternativen Versuchsanordnung wird beim Einhalten aller übrigen Bedingungen ohne Zugabe von Hypoxanthin und mit einer initialen Parasitämie von 0,5 % gearbeitet.” left out

[6] = test system: Bakterien; details: cited from earlier work

Work on `CC(=O)N(O)CCCCCNC(=O)CCC(=O)N(O)CCCCCNC(=O)CCC(=O)N(O)CCCCCN` [Desferrioxamin B, 6,17,28-Trihydroxy-7,10,18,21,29-pentaoxo-6,11,17,22,28-pentaaza-triacontanylamin] yielded an IC50 ([1]; Versuchsanordnung I, with 400 nM Chloroquin added) of 3 ± 1 µM, an IC50 ([1]; Versuchsanordnung I, without Chloroquin in test medium) of 6 ± 1.5 µM and an IC50 ([1]; Versuchsanordnung II, without Chloroquin in test medium) of 2 ± 1 µM. For the same molecule, the “Wirksamkeit gegen Chloroquin-resistenten Stamm im Vergleich zu normal empfindlichem Stamm” value ([1]; comparison of resistant with sensitive strain grown under the same conditions) was “um fast eine Grössenordnung wirksamer”, the Toxikologie [2] was “auch in sehr hohen Dosen toxikologisch einwandfrei” and the “Wachstum des Parasiten” value ([3]; 0,2 g/kg) was “das Wachstum des Parasiten deutlich hemmt”. For the same molecule, the “Wachstum des Parasiten” value ([3]; 1,0 g/kg) was “ihn vollständig tötet”, the “Wachstum / Abtötung in vitro” value [4] was “nicht nur in ihrem Wachstum gehemmt, sondern auch getötet” and the IC50 ([5]; Versuchsanordnung I) was 17 ± 3 µM. The IC50 ([5]; Versuchsanordnung II) was 5 µM and the “antibakterielle Wirksamkeit in vitro” value [6] was “gewisse allgemeine antibakterielle Wirksamkeit in vitro”.
In the case of `CC1(C(=O)O)CSC(c2ncccc2O)=N1` (stereo not shown) [Desferri-ferrithiocin, 2-(3-Hydroxy-2-pyridyl)-4-methyl-2-thiazolin-4-carbonsäure], the “antibakterielle Wirksamkeit in vitro” value [6] is given as “gewisse allgemeine antibakterielle Wirksamkeit in vitro”.
In the case of `CCN(CC)CCCC(C)Nc1ccnc2cc(Cl)ccc12` (stereo not drawn) [Chloroquin, 7-Chlor-4-(4-diethylamino-l-methylbutylamino)chinolin], the Vermehrungsfaktor ([1]; Versuchsanordnung I with 500 nM Chloroquin, within 48 hours) is reported as 7-9.
